PMC8161026, “Synthesis and Anticancer Activity Evaluation of 5-[2-Chloro-3-(4-nitrophenyl)-2-propenylidene]-4-thiazolidinones” (Molecules, 2021)

What was measured:
DU-145 = assay: cells; conditions: Homo sapiens, DU-145, 48 h; for CC50: read-out: LC50
MALME-3M = assay: NCI DTP 60 cell line screen, SRB; conditions: 48 h; for GI50 / CC50: Homo sapiens, Malme-3M; for CC50: read-out: LC50; for TGI: MALME-3M (Melanoma), SRB
Colo 205 = assay: NCI DTP 60 cell line screen, SRB; conditions: for TGI: Colo 205 (Colon Cancer), 48 h, SRB; for GI50 / CC50: Homo sapiens, COLO 205, 48 h; for CC50: read-out: LC50
LOX IMVI = LOX IMVI (Melanoma), 48 h, SRB
HL-60(TB) = conditions: for TGI: HL-60(TB) (Leukemia), 48 h, SRB
SK-MEL-28 = SK-MEL-28 (Melanoma), 48 h, SRB
T-47D = T-47D (Breast Cancer), 48 h, SRB
A549/ATCC = A549/ATCC (Non-Small Cell Lung Cancer), 48 h, SRB
SW-620 = SW-620 (Colon Cancer), 48 h, SRB
MDA-MB-435 = assay: NCI DTP 60 cell line screen, SRB; conditions: for GI50 / CC50: Homo sapiens, MDA-MB-435, 48 h; for CC50: read-out: LC50; for TGI: MDA-MB-435 (Breast Cancer), 48 h, SRB
NCI-H23 = assay: cells; conditions: Homo sapiens, NCI-H23, 48 h; for CC50: read-out: LC50
KM12 = assay: cells; conditions: Homo sapiens, KM12, 48 h; for CC50: read-out: LC50
786-0 [1] = conditions: 786-0 (Renal Cancer), 48 h, SRB
786-0 [2] = assay: cells; conditions: Homo sapiens, 786-0, 48 h; for CC50: read-out: LC50
U251 = assay: cells; conditions: Homo sapiens, U-251, 48 h; for CC50: read-out: LC50
SNB-75 = assay: cells; conditions: Homo sapiens, SNB-75, 48 h; for CC50: read-out: LC50
NCI-H522 = assay: NCI DTP 60 cell line screen, SRB; conditions: for GI50 / CC50: Homo sapiens, NCI-H522, 48 h; for CC50: read-out: LC50; for TGI: NCI-H522 (Non-Small Cell Lung Cancer), 48 h, SRB
HS 578T = assay: NCI DTP 60 cell line screen, SRB; conditions: 48 h; for TGI: HS 578T (Breast Cancer), SRB; for GI50 / CC50: Homo sapiens, Hs-578T; for CC50: read-out: LC50
ACHN = assay: NCI DTP 60 cell line screen, SRB; conditions: 48 h; for TGI: ACHN (Renal Cancer), SRB; for GI50 / CC50: Homo sapiens, ACHN; for CC50: read-out: LC50
SF-268 = assay: NCI DTP 60 cell line screen, SRB; conditions: for GI50 / CC50: Homo sapiens, SF-268, 48 h; for CC50: read-out: LC50; for TGI: SF-268 (CNS Cancer), 48 h, SRB
in vitro = conditions: human
Experimental: (§1) Another part of our study was to determine the influence of compounds 2f, 2i, 2j, and 2h on normal human blood lymphocytes (Figure 5). […] Thus, normal blood lymphocytes are blood cells, as well as cells of leukemia cell lines, therapeutic index (TI) of compounds 2f, 2h, and 2j was calculated as GI50 (normal blood lymphocyte)/GI50 (leukemia cell line) (Table 5).
(§2) Figure 5 Human lymphocyte viability after 48 h of 2f, 2i, 2j, 2h, and Ciminalum drug exposure was estimated by MTT assay.
(§3) The assay was performed by using 3-(4,5-dimethylthiazole-2-yl)- 2,5-diphenyltetrazolium bromide (MTT). Confluent cells, cultured for 24 h with 0.1, 1, 5, 10, 20, 30, and 100 µM concentrations of studied compounds in 24-well plates were washed with PBS. MTT was dissolved in PBS, and 25 µL were added to each well. Plates were incubated for 4 h at 37 °C in 5% CO2 in an incubator. The medium with MTT was removed, and 1 mL of DMSO was added to the attached cells. Furthermore, cells were incubated for 5–10 min in RT and then 10 µl of Sorensen buffer was added to each well. The absorbance of converted dye in living cells was measured at a wavelength of 570 nm. The cell viability of breast cancer cells, gastric cancer cells, and human colon cancer cells cultured in the presence of ligands was calculated as percent of control cells.
(§4) First, 20 mL of venous blood was taken from volunteers (Ethical protocol number 2, 27 January 2019) and collected in the presence of 200 μL of undiluted fresh heparin (1/100). Sterile blood was diluted 2 times with 0.9% NaCl under the sterile conditions. Isolation of lymphocytes was performed in a density gradient of ficol-verografin using the protocol of the manufacturer (Lympoprep, NYCOMED PHARMA AS, Oslo Norway). The resulting lymphocytes were resuspended in the RPMI-1640 medium and cultured for several days (up to 10 days). To separate the lymphocytes from the monocytes, cell suspension was left for 24 h. After 24 h of culture, monocytes were attached, while lymphocytes were transferred to a fresh Falcon tube (15 mL). To stimulate the proliferation of lymphocytes, they were cultured on CD3+ antibody-coated plastic plate in the RPMI-1640 medium supplemented with 20% FBS.

[3] = test system: normal human blood lymphocytes; assay: in vitro
Experimental: as §1, §2, §3, §4

Structure (SMILES)	GI50 (DU-145)	CC50 (DU-145)	GI50 (MALME-3M)	CC50 (MALME-3M)	TGI (MALME-3M)	TGI (Colo 205)	GI50 (Colo 205)	CC50 (Colo 205)	TGI (LOX IMVI)	TGI (T-47D)	TGI (A549/ATCC)	TGI (SW-620)	GI50 (NCI-H23)	CC50 (NCI-H23)	GI50 (KM12)	CC50 (KM12)	TGI (786-0 [1])	GI50 (786-0 [2])	CC50 (786-0 [2])	GI50 (U251)	further results
O=C1NC(=S)S/C1=C\C(Cl)=C\c1ccc([N+](=O)[O-])cc1 [Compound 2b, 5-[(Z,2Z)-2-Chloro-3-(4-nitrophenyl)-2-propenylidene]-2-thioxo-4-thiazolidinone]	7.09 µM	28.4 µM	4.93 µM	44.6 µM	14.9 µM	17.4 µM	4.04 µM	> 50 µM	15.4 µM	> 50 µM	> 50 µM	7.62 µM	3.27 µM	45.5 µM	5.27 µM	40.4 µM	18.8 µM	9.4 µM	37.6 µM	3.09 µM	TGI (HL-60(TB)): 14.4 µM; TGI (SK-MEL-28): 12.3 µM; GI50 (MDA-MB-435): 8.57 µM; CC50 (MDA-MB-435): > 50 µM; TGI (MDA-MB-435): 47.9 µM; CC50 (U251): 22.1 µM; GI50 (SNB-75): 7.59 µM; CC50 (SNB-75): > 50 µM; GI50 (NCI-H522): 3.19 µM; CC50 (NCI-H522): 42.3 µM; TGI (NCI-H522): 13.1 µM; TGI (HS 578T): 12.1 µM; GI50 (HS 578T): 1.42 µM; CC50 (HS 578T): > 50 µM; TGI (ACHN): 11.8 µM; GI50 (ACHN): 3.64 µM; CC50 (ACHN): 31.7 µM; GI50 (SF-268): 5.24 µM; CC50 (SF-268): > 50 µM; TGI (SF-268): 18.9 µM
O=C1/C(=C/C(Cl)=C/c2ccc([N+](=O)[O-])cc2)SC(=S)N1/N=C\C(Cl)=C\c1ccc([N+](=O)[O-])cc1 [Compound 2c, 5-[(Z,2Z)-2-Chloro-3-(4-nitrophenyl)-2-propenylidene]-3-[(Z,2Z)-2-chloro-3-(4-nitrophenyl)-2-propenylideneamino]-2-thioxo-4-thiazolidinone]	21.7 µM	> 100 µM	25 µM	> 100 µM	60.4 µM	> 100 µM	56.2 µM	> 100 µM	28.8 µM	65.3 µM	42.6 µM	> 100 µM	16.6 µM	60.3 µM	20.6 µM	> 100 µM	30.7 µM	12.1 µM	77.8 µM	8.03 µM	TGI (HL-60(TB)): 23.3 µM; GI50 (MDA-MB-435): 20.3 µM; CC50 (MDA-MB-435): 86.3 µM; TGI (MDA-MB-435): 41.9 µM; CC50 (U251): 65.8 µM; GI50 (NCI-H522): 16.3 µM; CC50 (NCI-H522): 66.2 µM; TGI (NCI-H522): 32.9 µM; TGI (HS 578T): > 100 µM; GI50 (HS 578T): 29.5 µM; CC50 (HS 578T): > 100 µM; TGI (ACHN): 29.7 µM; GI50 (ACHN): 15.6 µM; CC50 (ACHN): 56.4 µM; GI50 (SF-268): 17 µM; CC50 (SF-268): > 100 µM; TGI (SF-268): 41.3 µM
O=C1/C(=C/C(Cl)=C/c2ccc([N+](=O)[O-])cc2)SC(=S)N1c1ccc(O)cc1 [Compound 2f, 5-[(Z,2Z)-2-Chloro-3-(4-nitrophenyl)-2-propenylidene]-3-(4-hydroxyphenyl)-2-thioxo-4-thiazolidinone]	0.666 µM	50.1 µM	6.53 µM	94.5 µM	27.6 µM	> 100 µM	4.34 µM	> 100 µM	3.70 µM	7.71 µM	6.47 µM	1.52 µM	1.48 µM	6.52 µM	2.85 µM	> 100 µM	3.83 µM	2.04 µM	7.18 µM	0.368 µM	TI (Therapeutic Index) (HL-60(TB); GI50 (normal blood lymphocyte)/GI50 (HL-60(TB))): >206.19; TGI (HL-60(TB)): 4.48 µM; TGI (SK-MEL-28): 47.7 µM; GI50 (MDA-MB-435): 3.5 µM; CC50 (MDA-MB-435): > 100 µM; TGI (MDA-MB-435): 7.71 µM; CC50 (U251): 38.9 µM; GI50 (SNB-75): 25.1 µM; CC50 (SNB-75): > 100 µM; GI50 at 48 h (in vitro): > 100 µM; toxicity toward normal human blood lymphocytes [3]: low toxicity; TGI (ACHN): 3.51 µM; GI50 (ACHN): 1.7 µM; CC50 (ACHN): 7.27 µM; GI50 (SF-268): 2.55 µM; CC50 (SF-268): > 100 µM; TGI (SF-268): 34.5 µM
O=C(O)C(Cc1ccccc1)N1C(=O)/C(=C/C(Cl)=C/c2ccc([N+](=O)[O-])cc2)SC1=S (centres unmarked) [Compound 2j, 2-{5-[(Z,2Z)-2-Chloro-3-(4-nitrophenyl)-2-propenylidene]-4-oxo-2-thioxothiazolidin-3-yl}-3-phenylpropanoic acid]	2.06 µM	11.7 µM	2.13 µM	> 100 µM	4.82 µM	> 100 µM	2.45 µM	> 100 µM	3.26 µM	3.71 µM	> 100 µM	4.39 µM	2.13 µM	> 100 µM	2.06 µM	9.16 µM	5.01 µM	2.1 µM	> 100 µM	1.72 µM	TGI (SK-MEL-28): 4.68 µM; CC50 (U251): 7.21 µM; GI50 (SNB-75): 1.96 µM; CC50 (SNB-75): > 100 µM; GI50 (NCI-H522): 1.72 µM; CC50 (NCI-H522): 29.5 µM; TGI (NCI-H522): 4.47 µM; GI50 at 48 h (in vitro): 49 µM; toxicity toward normal human blood lymphocytes [3]: low toxicity; TGI (HS 578T): > 100 µM; GI50 (HS 578T): 4.37 µM; CC50 (HS 578T): > 100 µM; TGI (ACHN): 3.30 µM; GI50 (ACHN): 1.8 µM; CC50 (ACHN): 6.04 µM; GI50 (SF-268): 2.21 µM; CC50 (SF-268): > 100 µM; TGI (SF-268): > 100 µM
